# Assay results as given in US20140024667A1, “FUNGICIDAL COMPOSITIONS” (SYNGENTA CROP PROTECTION LLC, priority 2005, published 2014).
# Assays:
# Assay type in all cases: cell-based
# [1] = tested on: Pseudocercosporella herpotrichoides var. acuformis; assay: Fungal growth assay against Pseudocercosporella herpotrichoides var. acuformis (Example B-8)
# Source text: (§1) A synergistic effect exists whenever the action of an active ingredient combination is greater than the sum of the actions of the individual components.
# (§2) The action to be expected E for a given active ingredient combination obeys the so-called COLBY formula and can be calculated as follows (COLBY, S. R. “Calculating synergistic and antagonistic responses of herbicide combination”. Weeds, Vol. 15, pages 20-22; 1967):
# (§3) ppm=milligrams of active ingredient (=a.i.) per liter of spray mixture X=% action by active ingredient A) using p ppm of active ingredient Y=% action by active ingredient B) using q ppm of active ingredient.
# (§4) According to COLBY, the expected (additive) action of active ingredients A)+B) using p+q ppm of active ingredient is
# (§5) If the action actually observed (O) is greater than the expected action (E), then the action of the combination is super-additive, i.e. there is a synergistic effect.
# (§6) Conidia of the fungus from cryogenic storage are directly mixed into nutrient broth (PDB potato dextrose broth). After placing a (DMSO) solution of the test compounds into a microtiter plate (96-well format) the nutrient broth containing the fungal spores is added. The test plates are incubated at 24 C and the inhibition of growth is determined photometrically after 3 days. The fungicide interactions in the combinations are calculated according to the COLBY method. The data generated in this experiment indicate synergy between cyprodinil and boscalid, cyprodinil and dodine and cyprodinil and pyribencarb when used in mixture with one another.
# Botrytis cinerea = assay: Fungal growth assay against Botrytis cinerea (Example B-1 a)
# Source text: as §1, §2, §3, §4, §5
# as §6, with “and” for “and boscalid, cyprodinil and”
# Pyrenophora teres = assay: Fungal growth assay against Pyrenophora teres (Example B-5 a); details: Cyprodinil/Pyribencarb series
# Source text: as §1, §2, §3, §4, §5
# as §6, with “The test plates are incubated at 24 C and the inhibition of growth is determined photometrically after 3 days.” left out, “and” for “and boscalid, cyprodinil and dodine and cyprodinil and”
# Fusarium culmorum = assay: Fungal growth assay against Fusarium culmorum (Example B-14)
# Source text: as §1, §2, §3, §4, §5
# as §6, with “2” for “3”, “dodine,” for “boscalid,”, “fluazinam” for “dodine”
# [2] = 0.125 mg/L alone, Cyprodinil/Boscalid series
# [3] = 0.25 mg/L alone, Cyprodinil/Boscalid series
# [4] = 0.5 mg/L alone, Cyprodinil/Boscalid series
# [5] = 0.125 mg/L alone, Cyprodinil/Pyribencarb series
# [6] = 0.25 mg/L alone, Cyprodinil/Pyribencarb series
# [7] = 0.5 mg/L alone, Cyprodinil/Dodine series
# [8] = 0.5 mg/L alone, Cyprodinil/Pyribencarb series
# [9] = 1 mg/L alone, Cyprodinil/Dodine series
# [10] = 1 mg/L alone, Cyprodinil/Pyribencarb series
# [11] = 2 mg/L alone, Cyprodinil/Dodine series
# [12] = 2 mg/L alone, Cyprodinil/Pyribencarb series
# [13] = 4 mg/L alone, Cyprodinil/Dodine series
# [14] = 4 mg/L alone, Cyprodinil/Pyribencarb series
# [15] = 8 mg/L alone, Cyprodinil/Dodine series
# [16] = 0.125 mg/L alone, Cyprodinil/Dodine series
# [17] = 0.25 mg/L alone, Cyprodinil/Dodine series
# [18] = 16 mg/L alone, Cyprodinil/Dodine series
# [19] = 0.008 mg/L alone, Cyprodinil/Pyribencarb series
# [20] = 0.016 mg/L alone, Cyprodinil/Pyribencarb series
# [21] = 0.031 mg/L alone, Cyprodinil/Pyribencarb series
smiles,measurement,setting,value
O=C(Nc1ccccc1-c1ccc(Cl)cc1)c1cccnc1Cl [Boscalid],Observed control in % (% Cobs),"[1]; 0.031 mg/L alone, Cyprodinil/Boscalid series",0%
same,Observed control in % (% Cobs),"[1]; 0.063 mg/L alone, Cyprodinil/Boscalid series",2.5%
same,Observed control in % (% Cobs),[1]; [2],32.8%
same,Observed control in % (% Cobs),[1]; [3],58.4%
same,Observed control in % (% Cobs),[1]; [4],77.1%
"Cc1cc(C2CC2)nc(Nc2ccccc2)n1 [Cyprodinil, (4-cyclopropyl-6-methyl-pyrimidin-2-yl)-phenyl-amine]",Observed control in % (% Cobs),Botrytis cinerea; [5],16.7%
same,Observed control in % (% Cobs),Botrytis cinerea; [6],22.6%
same,Observed control in % (% Cobs),Botrytis cinerea; [7],26.7%
same,Observed control in % (% Cobs),Botrytis cinerea; [8],21.4%
same,Observed control in % (% Cobs),Botrytis cinerea; [9],38.2%
same,Observed control in % (% Cobs),Botrytis cinerea; [10],25.7%
same,Observed control in % (% Cobs),Botrytis cinerea; [11],50.5%
same,Observed control in % (% Cobs),Botrytis cinerea; [12],23.2%
same,Observed control in % (% Cobs),Botrytis cinerea; [13],40.1%
same,Observed control in % (% Cobs),Botrytis cinerea; [14],37.1%
same,Observed control in % (% Cobs),Botrytis cinerea; [15],51.8%
same,Observed control in % (% Cobs),Pyrenophora teres; 0.25 mg/L alone,52.0%
same,Observed control in % (% Cobs),Pyrenophora teres; 0.5 mg/L alone,59.0%
same,Observed control in % (% Cobs),"[1]; 0.0625 mg/L alone, Cyprodinil/Boscalid series",23.5%
same,Observed control in % (% Cobs),[1]; [2],40.7%
same,Observed control in % (% Cobs),[1]; [16],10.9%
same,Observed control in % (% Cobs),[1]; [5],16.6%
same,Observed control in % (% Cobs),[1]; [3],28.9%
same,Observed control in % (% Cobs),[1]; [17],14.8%
same,Observed control in % (% Cobs),[1]; [4],19.6%
same,Observed control in % (% Cobs),[1]; [7],13.7%
same,Observed control in % (% Cobs),[1]; [8],30.1%
same,Observed control in % (% Cobs),"[1]; 1 mg/L alone, Cyprodinil/Boscalid series",17.5%
same,Observed control in % (% Cobs),[1]; [9],17.9%
same,Observed control in % (% Cobs),[1]; [10],19.3%
same,Observed control in % (% Cobs),"[1]; 2 mg/L alone, Cyprodinil/Boscalid series",24.6%
same,Observed control in % (% Cobs),[1]; [11],20.3%
same,Observed control in % (% Cobs),[1]; [12],21.5%
same,Observed control in % (% Cobs),"[1]; 4 mg/L alone, Cyprodinil/Boscalid series",33.6%
same,Observed control in % (% Cobs),[1]; [13],25.9%
same,Observed control in % (% Cobs),[1]; [14],27.2%
same,Observed control in % (% Cobs),[1]; [15],33.6%
same,Observed control in % (% Cobs),[1]; [18],46.2%
same,Observed control in % (% Cobs),"Fusarium culmorum; 2 mg/L alone, Cyprodinil/Fluazinam series",0%
same,Observed control in % (% Cobs),Fusarium culmorum; [13],0%
same,Observed control in % (% Cobs),"Fusarium culmorum; 4 mg/L alone, Cyprodinil/Fluazinam series",0%
same,Observed control in % (% Cobs),Fusarium culmorum; [15],0%
same,Observed control in % (% Cobs),"Fusarium culmorum; 8 mg/L alone, Cyprodinil/Fluazinam series",0%
same,Observed control in % (% Cobs),"Fusarium culmorum; 8 mg/L alone, Cyprodinil/Pyribencarb series",2.4%
same,Observed control in % (% Cobs),Fusarium culmorum; [18],6.7%
same,Observed control in % (% Cobs),"Fusarium culmorum; 16 mg/L alone, Cyprodinil/Fluazinam series",9.8%
same,Observed control in % (% Cobs),"Fusarium culmorum; 16 mg/L alone, Cyprodinil/Pyribencarb series",8.4%
same,Observed control in % (% Cobs),"Fusarium culmorum; 32 mg/L alone, Cyprodinil/Dodine series",26.9%
same,Observed control in % (% Cobs),"Fusarium culmorum; 32 mg/L alone, Cyprodinil/Fluazinam series",16.4%
same,Observed control in % (% Cobs),"Fusarium culmorum; 32 mg/L alone, Cyprodinil/Pyribencarb series",21.7%
CCCCCCCCCCCCNC(=N)N [Dodine],Observed control in % (% Cobs),Botrytis cinerea; [13],0%
same,Observed control in % (% Cobs),Botrytis cinerea; [15],0%
same,Observed control in % (% Cobs),Botrytis cinerea; [18],36.3%
same,Observed control in % (% Cobs),[1]; [16],0%
same,Observed control in % (% Cobs),[1]; [17],0%
same,Observed control in % (% Cobs),[1]; [7],0%
same,Observed control in % (% Cobs),[1]; [9],0%
same,Observed control in % (% Cobs),[1]; [11],1.4%
same,Observed control in % (% Cobs),[1]; [13],31.3%
same,Observed control in % (% Cobs),[1]; [15],70.5%
same,Observed control in % (% Cobs),[1]; [18],72.4%
same,Observed control in % (% Cobs),Fusarium culmorum; [15],3.3%
same,Observed control in % (% Cobs),Fusarium culmorum; [18],15.1%
O=[N+]([O-])c1cc(C(F)(F)F)c(Cl)c([N+](=O)[O-])c1Nc1ncc(C(F)(F)F)cc1Cl [Fluazinam],Observed control in % (% Cobs),"Fusarium culmorum; 0.063 mg/L alone, Cyprodinil/Fluazinam series",5.1%
same,Observed control in % (% Cobs),"Fusarium culmorum; 0.125 mg/L alone, Cyprodinil/Fluazinam series",11.8%
same,Observed control in % (% Cobs),"Fusarium culmorum; 0.25 mg/L alone, Cyprodinil/Fluazinam series",27.4%
same,Observed control in % (% Cobs),"Fusarium culmorum; 0.5 mg/L alone, Cyprodinil/Fluazinam series",35.7%
same,Observed control in % (% Cobs),"Fusarium culmorum; 1 mg/L alone, Cyprodinil/Fluazinam series",72.4%
COC(=O)NCc1cc(/C(C)=N/OCc2cccc(C)n2)ccc1Cl [Pyribencarb],Observed control in % (% Cobs),Botrytis cinerea; [19],0.4%
same,Observed control in % (% Cobs),Botrytis cinerea; [20],0%
same,Observed control in % (% Cobs),Botrytis cinerea; [21],3.3%
same,Observed control in % (% Cobs),"Botrytis cinerea; 0.063 mg/L alone, Cyprodinil/Pyribencarb series",2.6%
same,Observed control in % (% Cobs),Botrytis cinerea; [5],16.4%
same,Observed control in % (% Cobs),Pyrenophora teres; 0.004 mg/L alone,0%
same,Observed control in % (% Cobs),Pyrenophora teres; 0.008 mg/L alone,0%
same,Observed control in % (% Cobs),Pyrenophora teres; 0.016 mg/L alone,0%
same,Observed control in % (% Cobs),Pyrenophora teres; 0.031 mg/L alone,0%
same,Observed control in % (% Cobs),Pyrenophora teres; 0.063 mg/L alone,17.0%
same,Observed control in % (% Cobs),[1]; [19],16.2%
same,Observed control in % (% Cobs),[1]; [20],40.1%
same,Observed control in % (% Cobs),[1]; [21],61.1%
same,Observed control in % (% Cobs),Fusarium culmorum; [5],0%
same,Observed control in % (% Cobs),Fusarium culmorum; [6],8.7%
same,Observed control in % (% Cobs),Fusarium culmorum; [8],11.5%
same,Observed control in % (% Cobs),Fusarium culmorum; [10],16.2%
